Reference: PubChem BioAssay (NCI)
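Step 1: Grow cells in 96-well plates. Step 2: Expose to compound for 48 hours at 5 concentrations. Step 3: Interpolate endpoints linearly; if unreached, use highest concentration. TGI: total growth inhibition.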

Legend:
Test in all cases: growth of human tumour cells (NCI), 48 h
OVCAR-5 ovarian = test system: OVCAR-5 ovarian
SF-268 CNS = test system: SF-268 CNS
HCT-116 colon = test system: HCT-116 colon
RXF 393 renal = test system: RXF 393 renal
SN12C renal = test system: SN12C renal
PC-3 prostate = test system: PC-3 prostate
HOP-62 NSCLC = test system: HOP-62 NSCLC
BT-549 breast = test system: BT-549 breast
CAKI-1 renal = test system: CAKI-1 renal
SK-OV-3 ovarian = test system: SK-OV-3 ovarian
IGROV1 ovarian = test system: IGROV1 ovarian
SK-MEL-28 melanoma = test system: SK-MEL-28 melanoma
UACC-62 melanoma = test system: UACC-62 melanoma
SW-620 colon = test system: SW-620 colon
HL-60(TB) leukemia = test system: HL-60(TB) leukemia
SK-MEL-5 melanoma = test system: SK-MEL-5 melanoma
KM12 colon = test system: KM12 colon
HCT-15 colon = test system: HCT-15 colon
T-47D breast = test system: T-47D breast
OVCAR-3 ovarian = test system: OVCAR-3 ovarian
HCC-2998 colon = test system: HCC-2998 colon
EKVX NSCLC = test system: EKVX NSCLC
OVCAR-8 ovarian = test system: OVCAR-8 ovarian
ACHN renal = test system: ACHN renal
RPMI-8226 leukemia = test system: RPMI-8226 leukemia
SR leukemia = test system: SR leukemia
HT29 colon = test system: HT29 colon
A549 NSCLC = test system: A549 NSCLC
SF-295 CNS = test system: SF-295 CNS
NCI-H23 lung = test system: NCI-H23 lung
COLO 205 colon = test system: COLO 205 colon
M14 melanoma = test system: M14 melanoma
MCF7 breast = test system: MCF7 breast
MDA-MB-435 = test system: MDA-MB-435
TK-10 renal = test system: TK-10 renal
SK-MEL-2 melanoma = test system: SK-MEL-2 melanoma
U251 CNS = test system: U251 CNS
MDA-MB-231 breast = test system: MDA-MB-231 breast
K-562 leukemia = test system: K-562 leukemia
MALME-3M melanoma = test system: MALME-3M melanoma
NCI/ADR-RES ovarian = test system: NCI/ADR-RES ovarian
DU-145 prostate = test system: DU-145 prostate
OVCAR-4 ovarian = test system: OVCAR-4 ovarian
HS 578T breast = test system: HS 578T breast
LOX IMVI melanoma = test system: LOX IMVI melanoma
MOLT-4 leukemia = test system: MOLT-4 leukemia
UO-31 renal = test system: UO-31 renal
NCI-H226 lung = test system: NCI-H226 lung
MDA-N = test system: MDA-N
UACC-257 melanoma = test system: UACC-257 melanoma
CCRF-CEM leukemia = test system: CCRF-CEM leukemia
786-0 renal = test system: 786-0 renal
NCI-H460 lung = test system: NCI-H460 lung
SF-539 CNS = test system: SF-539 CNS
SNB-19 CNS = test system: SNB-19 CNS
SNB-75 CNS = test system: SNB-75 CNS
A498 renal = test system: A498 renal
HOP-92 NSCLC = test system: HOP-92 NSCLC
NCI-H522 lung = test system: NCI-H522 lung

Measured: TGI

CC(C)[C@@H]1CC[C@@H](C)C[C@H]1OC(=O)c1c2n(c3ccccc13)C[C@H]1OC(C)(C)O[C@@H]21
24.1 µM: SR leukemia
48.9 µM: NCI-H23 lung
51.9 µM: HS 578T breast
32.5 µM: U251 CNS
73.8 µM: EKVX NSCLC
87.3 µM: CAKI-1 renal
82.9 µM: RXF 393 renal
60.7 µM: TK-10 renal
not listed: NCI-H460 lung | SF-539 CNS | SNB-19 CNS | SNB-75 CNS | A498 renal | HOP-92 NSCLC | NCI-H522 lung
> 100 µM: all other assays above

C[C@]12C=CC(=O)C=C1CC[C@@H]1[C@@H]2CC[C@@]2(C)[C@H]1CC[C@]2(O)C(N)=O
not listed: CAKI-1 renal | MCF7 breast
> 100 µM: all other assays above

CC(C)=CCCC(C)(OC1OC(CO)C(O)C(O)C1O)C1CCC2(C)C1C(O)CC1C3(C)CCC(O)C(C)(C)C3C(OC3OC(CO)C(O)C(O)C3OC3OC(C)C(O)C(O)C3O)CC12C (stereo not drawn) (tested in a mixture with another compound)
> 7.5 µM: NCI-H460 lung
not listed: RXF 393 renal | MALME-3M melanoma
> 75 µM: all other assays above

CC1(C)CCN2C(=O)C34CCCC3CC21S4 (stereo not drawn)
not listed: HCC-2998 colon | NCI-H460 lung | SNB-75 CNS
> 100 µM: all other assays above

CCC(NC(C)c1ccccc1)C(=O)c1ccc(OCc2ccccc2)c(OCc2ccccc2)c1 (stereo not drawn)
not listed: SK-MEL-2 melanoma | MOLT-4 leukemia | UACC-257 melanoma | CCRF-CEM leukemia | A498 renal
> 100 µM: all other assays above

CC(C)Oc1c(C2(c3ccccc3)SCCCS2)c(=O)c1=O
97.3 µM: NCI-H522 lung
not listed: HCC-2998 colon | RPMI-8226 leukemia | SR leukemia | K-562 leukemia | MALME-3M melanoma
> 100 µM: all other assays above

Oc1ccc(Br)cc1C=Nc1cccc(C(F)(F)F)c1
33.3 µM: PC-3 prostate
99.1 µM: SF-539 CNS
98.3 µM: BT-549 breast
34.4 µM: HL-60(TB) leukemia
49 µM: SK-MEL-2 melanoma
48.6 µM: M14 melanoma
90.6 µM: NCI-H226 lung
71.1 µM: UACC-62 melanoma
45.1 µM: U251 CNS
28.5 µM: CCRF-CEM leukemia
60.1 µM: HCC-2998 colon
83.8 µM: MOLT-4 leukemia
83.3 µM: HS 578T breast
75.5 µM: MALME-3M melanoma
not listed: SR leukemia
> 100 µM: all other assays above
